# In ChEMBL document CHEMBL3351862, “Coumarin hybrids as novel therapeutic agents” (Bioorg Med Chem, 2014):
# Assays:
# [1] = test system: KB; test: Anticancer activity against human KB cells; assay type: functional, cell-based
# [2] = test system: Human immunodeficiency virus; test: Antiviral activity against Human immunodeficiency virus; assay type: functional, organism-based; settings: Human immunodeficiency virus 1
# [3] = biological target: T1, Cholinesterase (Homo sapiens, UniProt P06276); test: Ratio of galamthamine IC50 to compound IC50 for BuChE (unknown origin)
# T1 sequence (P06276 whole entry): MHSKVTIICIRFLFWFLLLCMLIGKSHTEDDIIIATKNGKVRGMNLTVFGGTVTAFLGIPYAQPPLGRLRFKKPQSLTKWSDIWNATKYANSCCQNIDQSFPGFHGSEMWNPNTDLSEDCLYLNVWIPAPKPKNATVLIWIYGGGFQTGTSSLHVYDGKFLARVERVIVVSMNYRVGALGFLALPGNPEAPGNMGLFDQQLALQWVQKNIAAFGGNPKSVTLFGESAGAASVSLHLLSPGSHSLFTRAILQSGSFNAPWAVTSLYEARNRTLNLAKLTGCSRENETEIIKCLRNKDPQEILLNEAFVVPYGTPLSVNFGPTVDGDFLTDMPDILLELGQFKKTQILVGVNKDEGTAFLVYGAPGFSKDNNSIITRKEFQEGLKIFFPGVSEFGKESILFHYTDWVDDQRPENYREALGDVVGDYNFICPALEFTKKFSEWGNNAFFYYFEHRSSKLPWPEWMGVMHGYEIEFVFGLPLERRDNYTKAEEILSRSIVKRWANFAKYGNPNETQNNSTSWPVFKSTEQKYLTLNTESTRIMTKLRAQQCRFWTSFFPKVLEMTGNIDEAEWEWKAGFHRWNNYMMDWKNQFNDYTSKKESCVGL
# [4] = biological target: T1, Cholinesterase; test: Inhibition of BuChE (unknown origin)
# [5] = test system: Staphylococcus aureus; test: Antimicrobial activity against methicillin-resistant Staphylococcus aureus; assay type: functional
# [6] = test system: CCRF-CEM; test: Growth inhibition of human CCRF-CEM cells at 50 uM; assay type: functional; settings: read-out: GI
# [7] = biological target: Proto-oncogene tyrosine-protein kinase Src (Homo sapiens, UniProt P12931); test: Inhibition of Src kinase (unknown origin)
# Proto-oncogene tyrosine-protein kinase Src, sequence (P12931 2-536 limits assumed): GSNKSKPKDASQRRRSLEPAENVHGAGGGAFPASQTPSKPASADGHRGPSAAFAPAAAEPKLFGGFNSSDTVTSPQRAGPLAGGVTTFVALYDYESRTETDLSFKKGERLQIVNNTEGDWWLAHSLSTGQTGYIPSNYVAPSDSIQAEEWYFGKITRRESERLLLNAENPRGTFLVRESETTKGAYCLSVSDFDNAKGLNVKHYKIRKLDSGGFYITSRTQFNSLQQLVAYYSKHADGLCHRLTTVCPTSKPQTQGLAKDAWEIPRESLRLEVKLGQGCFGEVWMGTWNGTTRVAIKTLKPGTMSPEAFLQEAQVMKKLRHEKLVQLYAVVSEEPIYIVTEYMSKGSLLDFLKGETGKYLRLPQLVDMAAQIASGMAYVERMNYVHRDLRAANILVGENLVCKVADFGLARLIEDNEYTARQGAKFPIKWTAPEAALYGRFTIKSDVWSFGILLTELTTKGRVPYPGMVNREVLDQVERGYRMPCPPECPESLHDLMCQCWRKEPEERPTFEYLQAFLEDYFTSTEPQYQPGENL
# [8] = test system: SK-OV-3; test: Growth inhibition of human SKOV3 cells at 50 uM; assay type: functional; settings: read-out: GI
# [9] = test system: MCF7; test: Growth inhibition of human MCF7 cells at 50 uM; assay type: functional; settings: read-out: GI
# [10] = biological target: Acetylcholinesterase (Homo sapiens, UniProt P22303); test: Inhibition of AChE (unknown origin)
# Acetylcholinesterase, sequence (P22303 whole entry): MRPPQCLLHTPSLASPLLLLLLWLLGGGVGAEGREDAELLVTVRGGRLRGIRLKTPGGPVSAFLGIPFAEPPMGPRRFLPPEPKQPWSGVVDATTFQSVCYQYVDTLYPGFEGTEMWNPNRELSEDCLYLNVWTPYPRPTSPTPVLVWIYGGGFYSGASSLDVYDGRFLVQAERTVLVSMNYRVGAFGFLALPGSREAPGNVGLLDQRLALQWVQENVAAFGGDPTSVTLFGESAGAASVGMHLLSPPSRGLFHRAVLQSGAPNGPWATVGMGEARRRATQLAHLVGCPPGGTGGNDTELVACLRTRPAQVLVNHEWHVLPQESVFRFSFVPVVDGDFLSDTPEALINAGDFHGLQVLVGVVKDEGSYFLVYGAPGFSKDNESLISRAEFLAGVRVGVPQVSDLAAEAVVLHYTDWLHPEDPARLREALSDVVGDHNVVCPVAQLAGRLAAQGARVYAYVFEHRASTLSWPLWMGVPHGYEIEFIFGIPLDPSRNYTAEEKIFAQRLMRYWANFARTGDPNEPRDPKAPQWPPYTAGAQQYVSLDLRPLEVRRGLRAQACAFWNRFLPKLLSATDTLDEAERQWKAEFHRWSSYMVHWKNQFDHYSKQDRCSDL
# [11] = test system: Human immunodeficiency virus 1; test: Antiviral activity against Human immunodeficiency virus 1 3B; assay type: functional, organism-based
# [12] = test system: Human immunodeficiency virus 2; test: Antiviral activity against Human immunodeficiency virus 2 ROD; assay type: functional, organism-based; settings: Human immunodeficiency virus 2, ISOLATE ROD
# [13] = test system: Human immunodeficiency virus 1; test: Antiviral activity against Human immunodeficiency virus 1 harboring reverse transcriptase K103N/Y181C double mutant; assay type: functional, organism-based
# [14] = test system: Platelet; test: Inhibition of platelet (unknown origin) aggregation; assay type: functional, cell-based
structure (smiles),measurement,setting,value
COc1cc(OC)cc(-c2cc3ccc(OC(C)=O)c(OC(C)=O)c3oc2=O)c1,IC50,[1],5180 µM
O=c1oc2ccccc2cc1CSc1nc2cncnc2[nH]1,EC50,[2],2 µM
O=c1oc2ccccc2cc1CSc1nc2cccnc2[nH]1,EC50,[2],6.8 µM
O=c1oc2ccccc2cc1CSc1nc2ccccc2o1,EC50,[2],12 µM
Cc1cc(=O)oc2cc(OCCCCCCCN3CCN(CC(=O)Nc4c5c(nc6ccccc46)CCCC5)CC3)ccc12,Ratio IC50,[3],128
same,IC50,[4],0.099 µM
Cc1cc(=O)oc2cc(OCc3cn(Cc4cc(=O)oc5ccc(Cl)cc45)nn3)ccc12,MIC,[5],6.25 µg/mL
COc1ccc(/C=C/C(=O)c2c(O)ccc3c(C)cc(=O)oc23)cc1O,inhibition of growth at 50 µM,[6],50%
same,IC50,[7],14.5 µM
same,inhibition of growth at 50 µM,[8],63%
same,inhibition of growth at 50 µM,[9],43%
O=c1oc2ccccc2c(O)c1-c1csc(Nc2cccc([N+](=O)[O-])c2)n1,MIC,[5],31.2 µg/mL
Cc1cc(=O)oc2cc(OCCN3CCN(CC(=O)Nc4c5c(nc6ccccc46)CCCC5)CC3)ccc12,IC50,[10],0.092 µM
CCOC(=O)CNc1nc(Nc2ccc(C)cc2)nc(OCc2cc3ccccc3oc2=O)n1,IC50,[11],1 µg/mL
same,IC50,[12],1 µg/mL
same,IC50,[13],1 µg/mL
O=c1oc2ccc(O)cc2cc1-c1cc(O)cc(O)c1,IC50,[14],10.6 µM
